Read-outs that look alike come from different tables or passages of the source.
Tests used:
Assay type in all cases: in vivo
[1] = test system: Amaranthus retroflexus; assay: Greenhouse postemergence herbicidal activity on AMARE, 20 DAT; conditions: AMARE, postemergence
Method: (§1) For the post emergence treatment, the plants were first grown to the 2 leaf station (GS 12) and applied at GS 12-19 depending on the species. The herbicidal compositions were suspended or emulsified in water as distribution medium and sprayed using finely distributing nozzles.
(§2) The plants have been cultivated due to their individual requirements at 10 to 25° C. and. 20 to 35° C. The plants were irrigated due to their necessity.
(§3) The respective stated components A), were formulated as a 5% by weight strength emulsion concentrate containing wettol EM 31 20% and Cyclohexanone 80%. The respective stated components B), were formulated as either emulsifiable concentrates (EC), soluble liquids (SL), suspension concentrates (SC) or soluble granules (SG) as indicated in the table below. Component A, component B and the solvent system are introduced into the spray liquor used for applying the active compound. In the examples, the solvent used was water containing 1% Dash (Agnique ME 181 37.5%, Lutensit A-EP 22.5%, and Oleic Acid 5%) and 2% ammonium suflate.
(§4) In the following experiments, the herbicidal activity for the individual herbicide compounds (solo and mixture applications), the herbicidal succession was assessed 20 days after treatment (DAT). The evaluation for the damage on undesired weeds caused by the chemical compositions was carried out using a scale from 0 to 100%, compared to the untreated control plants. Here, 0 means no damage and 100 means complete destruction of the plants. The plants used in the greenhouse experiments belonged to the following species:
(§5) The value E, which corresponds to the effect (in %) that is to be expected if the activity of the individual compounds is additive, was calculated using the method of S. R. Colby (1967) “Calculating synergistic and antagonistic responses of herbicide combinations”, Weeds 15, p. 22 ff. Colby calculation for 2 way mixtures:
(§6) where: • X=effect in percent using herbicide A at an application rate a; • Y=effect in percent using herbicide B at an application rate b; • E=expected effect (in %) of A+B at application rates a+b
(§7) If the value observed in this manner is higher than the value E calculated according to Colby, a synergistic effect is present.

[2] = test system: Ipomoea hederacea; assay: Greenhouse postemergence herbicidal activity on IPOHE, 20 DAT
Method: as §1, §2, §3, §4, §5, §6, §7

[3] = test system: Sinapis arvensis; assay: Greenhouse postemergence herbicidal activity on SINAR, 20 DAT
Method: as §1, §2, §3, §4, §5, §6, §7

[4] = test system: Galium aparine; assay: Greenhouse postemergence herbicidal activity on GALAP, 20 DAT
Method: as §1, §2, §3, §4, §5, §6, §7

[5] = test system: Stellaria media; assay: Greenhouse postemergence herbicidal activity on STEME, 20 DAT; conditions: STEME, postemergence, 20 DAT
Method: as §1, §2, §3, §4, §5, §6, §7

[6] = test system: Amaranthus palmeri; assay: Greenhouse postemergence herbicidal activity on AMAPA, 20 DAT; conditions: Amaranthus palmeri, post-emergence, 480 h; for inhibition at 62.5 g/ha: 62.5 gai/ha
Method: as §1, §2, §3, §4, §5, §6, §7

[7] = test system: Chenopodium album; assay: Greenhouse postemergence herbicidal activity on CHEAL, 20 DAT
Method: as §1, §2, §3, §4, §5, §6, §7

[8] = test system: Kochia scoparia; assay: Greenhouse postemergence herbicidal activity on KCHSC, 20 DAT
Method: as §1, §2, §3, §4, §5, §6, §7

[9] = test system: Abutilon theoprasti; assay: Greenhouse postemergence herbicidal activity on ABUTH, 20 DAT; conditions: for inhibition at 62.5 g/ha: 62.5 gai/ha; for inhibition at 125 g/ha: 125 gai/ha
Method: as §1, §2, §3, §4, §5, §6, §7

[10] = test system: Polygonum convolvulus; assay: Greenhouse postemergence herbicidal activity on POLCO, 20 DAT; conditions: POLCO, postemergence; for % activity, solo 2,4-D: 20 DAT
Method: as §1, §2, §3, §4, §5, §6, §7

[11] = test system: Ambrosia elatior; assay: Greenhouse postemergence herbicidal activity on AMBEL, 20 DAT; conditions: AMBEL, 25 gai/ha, postemergence, 20 DAT
Method: as §1, §2, §3, §4, §5, §6, §7

[12] = test system: Polygonum persicaria; assay: Greenhouse postemergence herbicidal activity on POLPE, 20 DAT; conditions: POLPE, postemergence, 20 DAT
Method: as §1, §2, §3, §4, §5, §6, §7

[13] = test system: Polygonum aviculare; assay: Greenhouse postemergence herbicidal activity on POLAV, 20 DAT
Method: as §1, §2, §3, §4, §5, §6, §7

[14] = test system: Conyza canadiensis; assay: Greenhouse postemergence herbicidal activity on ERICA, 20 DAT; conditions: ERICA, postemergence, 20 DAT
Method: as §1, §2, §3, §4, §5, §6, §7

[15] = Abutilon, post-emergence, 480 h, 20 DAT, read-out: % activity, solo bromoxynil
[16] = Abutilon, post-emergence, 480 h, 20 DAT, read-out: % activity, solo (I.B)

N#Cc1cc(Br)c(O)c(Br)c1 [bromoxynil]
inhibition at 10.5 g/ha ([1]; Amaranthus retroflexus, post-emergence, 480 h, 10.5 gai/ha, 20 DAT, read-out: % activity, solo bromoxynil): 28%
inhibition at 125 g/ha ([1]; Amaranthus retroflexus, post-emergence, 480 h, 125 gai/ha, 20 DAT, read-out: % activity, solo bromoxynil): 80%
inhibition at 250 g/ha ([1]; Amaranthus retroflexus, post-emergence, 480 h, 250 gai/ha, 20 DAT, read-out: % activity, solo bromoxynil): 92%
inhibition at 10.5 g/ha ([2]; Ipomoea hederacea, post-emergence, 480 h, 10.5 gai/ha, 20 DAT, read-out: % activity, solo bromoxynil): 65%
inhibition at 21 g/ha ([2]; Ipomoea hederacea, post-emergence, 480 h, 21 gai/ha, 20 DAT, read-out: % activity, solo bromoxynil): 65%
inhibition at 125 g/ha ([2]; Ipomoea hederacea, post-emergence, 480 h, 125 gai/ha, 20 DAT, read-out: % activity, solo bromoxynil): 72%
inhibition at 62.5 g/ha ([3]; Mutarda arvensis, post-emergence, 480 h, 62.5 gai/ha, read-out: % activity, solo bromoxynil): 70%
inhibition at 250 g/ha ([3]; Mutarda arvensis, post-emergence, 480 h, 250 gai/ha, read-out: % activity, solo bromoxynil): 95%
inhibition at 62.5 g/ha ([4]; Galium aparine, post-emergence, 480 h, 62.5 gai/ha, 20 DAT, read-out: % activity, solo bromoxynil): 89%
inhibition at 125 g/ha ([4]; Galium aparine, post-emergence, 480 h, 125 gai/ha, 20 DAT, read-out: % activity, solo bromoxynil): 70%
inhibition at 62.5 g/ha ([5]; Stellaria media, post-emergence, 480 h, 62.5 gai/ha, read-out: % activity, solo bromoxynil): 0%
inhibition at 125 g/ha ([5]; Stellaria media, post-emergence, 480 h, 125 gai/ha, read-out: % activity, solo bromoxynil): 0%
inhibition at 250 g/ha ([5]; Stellaria media, post-emergence, 480 h, 250 gai/ha, read-out: % activity, solo bromoxynil): 0%
inhibition at 10.5 g/ha ([6]; 10.5 gai/ha, read-out: % activity, solo bromoxynil): 58%
inhibition at 62.5 g/ha ([6]; read-out: % activity, solo bromoxynil): 83%
inhibition at 10.5 g/ha ([7]; Chenopodium album, post-emergence, 480 h, 10.5 gai/ha, 20 DAT, read-out: % activity, solo bromoxynil): 53%
inhibition at 21 g/ha ([7]; Chenopodium album, post-emergence, 480 h, 21 gai/ha, 20 DAT, read-out: % activity, solo bromoxynil): 80%
inhibition at 62.5 g/ha ([7]; Chenopodium album, post-emergence, 480 h, 62.5 gai/ha, 20 DAT, read-out: % activity, solo bromoxynil): 45%
inhibition at 125 g/ha ([7]; Chenopodium album, post-emergence, 480 h, 125 gai/ha, 20 DAT, read-out: % activity, solo bromoxynil): 85%
inhibition at 250 g/ha ([7]; Chenopodium album, post-emergence, 480 h, 250 gai/ha, 20 DAT, read-out: % activity, solo bromoxynil): 95%
inhibition at 62.5 g/ha ([8]; Bassia scoparia, post-emergence, 480 h, 62.5 gai/ha, 20 DAT, read-out: % activity, solo bromoxynil): 50%
inhibition at 10.5 g/ha ([9]; Abutilon, post-emergence, 480 h, 10.5 gai/ha, 20 DAT, read-out: % activity, solo bromoxynil): 68%
inhibition at 62.5 g/ha [9, 15]: 73%
inhibition at 125 g/ha [9, 15]: 90%
inhibition at 250 g/ha ([9]; Abutilon, post-emergence, 480 h, 250 gai/ha, 20 DAT, read-out: % activity, solo bromoxynil): 90%

O=C(O)c1cc(C2CC2)nc2onc(-c3ccc(OC(F)F)cc3)c12 [(I.B)]
inhibition at 31.25 g/ha ([1]; Amaranthus retroflexus, post-emergence, 480 h, 31.25 gai/ha, 20 DAT, read-out: % activity, solo (I.B)): 89%
inhibition at 15.6 g/ha ([6]; 15.6 gai/ha, read-out: % activity, solo (I.B)): 20%
inhibition at 31.25 g/ha ([6]; 31.25 gai/ha, read-out: % activity, solo (I.B)): 70%
inhibition at 62.5 g/ha ([6]; read-out: % activity, solo (I.B)): 78%
inhibition at 31.25 g/ha ([7]; Chenopodium album, post-emergence, 480 h, 31.25 gai/ha, 20 DAT, read-out: % activity, solo (I.B)): 53%
inhibition at 31.25 g/ha ([8]; Bassia scoparia, post-emergence, 480 h, 31.25 gai/ha, 20 DAT, read-out: % activity, solo (I.B)): 43%
inhibition at 31.25 g/ha ([9]; Abutilon, post-emergence, 480 h, 31.25 gai/ha, 20 DAT, read-out: % activity, solo (I.B)): 70%
inhibition at 62.5 g/ha [9, 16]: 75%
inhibition at 125 g/ha [9, 16]: 73%

Cc1c(C(=O)c2cnn(C)c2O)ccc(S(C)(=O)=O)c1C1=NOCC1 [topramezone]
% activity, solo application topramezone ([1]; 25 gai/ha): 98%
% activity, solo application topramezone ([2]; 6.25 gai/ha): 23%
% activity, solo application topramezone ([2]; 12.5 gai/ha): 55%
% activity, solo application topramezone ([2]; 25 gai/ha): 75%
% activity, solo application topramezone ([2]; 50 gai/ha): 88%
% activity, solo application topramezone ([4]; 6.25 gai/ha): 70%
% activity, solo application topramezone ([4]; 12.5 gai/ha): 75%
% activity, solo application topramezone ([4]; 25 gai/ha): 70%
% activity, solo application topramezone ([4]; 50 gai/ha): 85%
% activity, solo application topramezone ([7]; 6.25 gai/ha): 30%
% activity, solo application topramezone ([7]; 12.5 gai/ha): 55%
% activity, solo application topramezone ([7]; 25 gai/ha): 55%
% activity, solo application topramezone ([7]; 50 gai/ha): 73%
% activity, solo application topramezone ([8]; 6.25 gai/ha): 20%
% activity, solo application topramezone ([8]; 12.5 gai/ha): 43%
% activity, solo application topramezone ([8]; 25 gai/ha): 75%
% activity, solo application topramezone ([8]; 50 gai/ha): 90%
% activity, solo application topramezone ([10]; 6.25 gai/ha): 25%
% activity, solo application topramezone ([10]; 12.5 gai/ha): 25%
% activity, solo application topramezone ([10]; 25 gai/ha): 68%
% activity, solo application topramezone ([9]; 6.25 gai/ha): 93%

O=C(O)COc1ccc(Cl)cc1Cl [2,4-D]
% activity, solo 2,4-D ([2]; 25 gai/ha, 20 DAT): 98%
% activity, solo 2,4-D ([2]; 100 gai/ha, 20 DAT): 98%
% activity, solo 2,4-D ([3]; 50 gai/ha): 80%
% activity, solo 2,4-D [11]: 45%
% activity, solo 2,4-D ([12]; 25 gai/ha): 10%
% activity, solo 2,4-D ([12]; 50 gai/ha): 40%
% activity, solo 2,4-D ([12]; 100 gai/ha): 70%
% activity, solo 2,4-D ([5]; 25 gai/ha): 0%
% activity, solo 2,4-D ([5]; 50 gai/ha): 0%
% activity, solo 2,4-D ([5]; 100 gai/ha): 30%
% activity, solo 2,4-D ([13]; 25 gai/ha): 10%
% activity, solo 2,4-D ([13]; 50 gai/ha): 98%
% activity, solo 2,4-D ([7]; 50 gai/ha, 20 DAT): 90%
% activity, solo 2,4-D ([7]; 100 gai/ha, 20 DAT): 90%
% activity, solo 2,4-D ([8]; 25 gai/ha, 20 DAT): 90%
% activity, solo 2,4-D ([14]; 25 gai/ha): 60%
% activity, solo 2,4-D ([14]; 100 gai/ha): 75%
% activity, solo 2,4-D ([10]; 25 gai/ha): 30%
% activity, solo 2,4-D ([10]; 50 gai/ha): 40%
% activity, solo 2,4-D ([10]; 100 gai/ha): 70%
% activity, solo 2,4-D ([9]; 25 gai/ha, 20 DAT): 50%
% activity, solo 2,4-D ([9]; 50 gai/ha, 20 DAT): 80%
% activity, solo 2,4-D ([9]; 100 gai/ha, 20 DAT): 90%

COCC(C)N(C(=O)CCl)c1c(C)csc1C (stereo not drawn) [DMTA, Dimethenamid]
inhibition at 175 g/ha ([1]; Amaranthus retroflexus, post-emergence, 480 h, 175 gai/ha, 20 DAT, read-out: % activity, solo DMTA): 35%
inhibition at 350 g/ha ([1]; Amaranthus retroflexus, post-emergence, 480 h, 350 gai/ha, 20 DAT, read-out: % activity, solo DMTA): 45%
inhibition at 175 g/ha ([6]; 175 gai/ha, read-out: % activity, solo DMTA): 10%
inhibition at 350 g/ha ([6]; 350 gai/ha, read-out: % activity, solo DMTA): 20%
inhibition at 350 g/ha ([7]; Chenopodium album, post-emergence, 480 h, 350 gai/ha, 20 DAT, read-out: % activity, solo DMTA): 28%
% activity, solo DMTA ([8]; 350 gai/ha, 20 DAT): 5%
inhibition at 175 g/ha ([8]; Bassia scoparia, post-emergence, 480 h, 175 gai/ha, 20 DAT, read-out: % activity, solo DMTA): 0%
inhibition at 175 g/ha ([9]; Abutilon, post-emergence, 480 h, 175 gai/ha, 20 DAT, read-out: % activity, solo DMTA): 0%
inhibition at 350 g/ha ([9]; Abutilon, post-emergence, 480 h, 350 gai/ha, 20 DAT, read-out: % activity, solo DMTA): 0%

Reference: patent publication US20180343865A1, “HERBICIDAL COMPOSITIONS COMPRISING ISOXAZOLO[5,4-B]PYRIDINES” (BASF SE, priority 2015, published 2018)
